Measurements from patent US10954269B2, “Anti-inflammatory tripeptides” (Dr. August Wolff Gmbh & Co. KG Arzneimittel, priority 2013, dated 2021).

Columns and labels:
Conditions in all cases: substance 10^−9M
[1] = tested on: human keratinocyte cell line (HaCaT); experiment: Cytokine secretion on protein level in activated human keratinocyte cell line HaCaT (13-plex FACS / Luminex, supernatant); assay type: cell-based
Procedure: (§1) Primary T-cells were isolated from peripheral blood from healthy volunteers and from secondary lymphatic organs from naïve C57BL/6 mice, respectively. The cells were stimulated with phorbol-12-myristate-13-acetate (PMA)/Ionomycin and interferon-gamma (IFN-γ), respectively, for 48 h to activate the cells. The activated cells release pro-inflammatory cytokines. In parallel a human (HaCaT) keratinocyte cell line was activated with PMA/Ionomycin and IFN-γ, respectively, too. […] At the same time release of anti-inflammatory IL-10 was inhibited. Two days after addition of PMA/Ionomycin and IFN-γ, respectively, the induction of IL-1 secretion was determined in the supernatant for proving that the cells are activated. […] The anti-inflammatory properties of the tripeptides were determined 48 h and 72 h following stimulation. A 13-plex-system based FACS analysis was used for showing the reduced secretion of pro-inflammatory cytokines in the supernatant. Data for IL-1, IL-2, IL-6, IL-12p70 IL-17, IFN-γ and TNF-α are considered to be most relevant. Thus, analysis of the anti-inflammatory properties of the tripeptides is preferably based on the results obtained for these analytes. […] Using this method the gene expression of pro-inflammatory markers like IL-6, IL-17, IFN-γ and TNF-α was determined.
(§2) In a third experiment murine and human T cells and HaCaT cells were stimulated with PMA/Ionomycin and treated with Examples 14, 15, 16 and 17 at 10^−7 M, 10^−9 M and 10^−11 M. Cytokine concentrations (IFN-γ, IL-17 and IL-10 for T cells and IFN-γ for HaCat) were assessed in the supernatants using the Luminex technology. Expression of genes coding for Il-1β, IL-6 and TNF-α was determined. […] Moreover, concentrations of pro-inflammatory cytokines IFN-γ and IL-17 was reduced in the supernatants whereas the concentration of anti-inflammatory cytokine IL-10 was increased. […]
(§3) For the biological assay two human cell lines of different origin were chosen to allow for translation of the results obtained. A HaCaT cell is a cell type belonging to an immortal human keratinocyte line used in scientific research. Its use in research allows for the characterization of human keratinocyte using a model that is reproducible and representing a human epithelial cell line. In contrast human T-lymphocytes (T-cells) are a type of lymphocyte (itself a type of white blood cell) that play a central role in cell-mediated inflammation/immunity.

primary human T-cells = experiment: Cytokine secretion on protein level in activated primary human T-cells (13-plex FACS / Luminex, supernatant); assay type: cell-based
Procedure: as §1, §2, §3

primary murine T-cells = experiment: Cytokine secretion on protein level in activated primary murine T-cells (13-plex FACS / Luminex, supernatant); assay type: cell-based, C57BL/6 mice
Procedure: as §1
In a third experiment murine and human T cells and HaCaT cells were stimulated with PMA/Ionomycin and treated with Examples 14, 15, 16 and 17 at 10^−7 M, 10^−9 M and 10^−11 M. Cytokine concentrations (IFN-γ, IL-17 and IL-10 for T cells and IFN-γ for HaCat) were assessed in the supernatants using the Luminex technology. Expression of genes coding for Il-1β, IL-6 and TNF-α was determined. […] Moreover, concentrations of pro-inflammatory cytokines IFN-γ and IL-17 was reduced in the supernatants whereas the concentration of anti-inflammatory cytokine IL-10 was increased.
The anti-inflammatory and immunomodulatory effects of selected examples of the present invention were compared with common immunosuppressants. Thus, cells activated with PMA/Ionomycin and IFN-γ, respectively, were stimulated with MMF or dexamethasone. Following stimulation the secretion of pro-inflammatory cytokines was analyzed on protein and gene level (Table 9 and FIGS. 4-6).

[2] = HaCaT stimulated with PMA/Ionomycin
[3] = primary human T-cells stimulated with IFN-γ
[4] = primary human T-cells stimulated with PBS
[5] = primary human T-cells stimulated with PMA/Ionomycin
[6] = primary murine T-cells stimulated with IFN-γ
[7] = primary murine T-cells stimulated with PBS
[8] = primary murine T-cells stimulated with PMA/Ionomycin

COc1c(C)c2c(c(O)c1C/C=C(\C)CCC(=O)OCCN1CCOCC1)C(=O)OC2 [MMF, mycophenolate mofetil, reference compound]
IL-1 cytokine concentration ([1]; HaCaT stimulated with IFN-γ): 0 pg/mL | IL-2 cytokine concentration ([1]; HaCaT stimulated with IFN-γ): 0 pg/mL | IL-4 cytokine concentration ([1]; HaCaT stimulated with IFN-γ): 33.01 pg/mL | IL-5 cytokine concentration ([1]; HaCaT stimulated with IFN-γ): 0 pg/mL | IL-6 cytokine concentration ([1]; HaCaT stimulated with IFN-γ): 239.05 pg/mL | IL-9 cytokine concentration ([1]; HaCaT stimulated with IFN-γ): 0 pg/mL | IL-10 cytokine concentration ([1]; HaCaT stimulated with IFN-γ): 0 pg/mL | IL-12 cytokine concentration ([1]; HaCaT stimulated with IFN-γ): 0 pg/mL | IL-13 cytokine concentration ([1]; HaCaT stimulated with IFN-γ): 0 pg/mL | IL-17 cytokine concentration ([1]; HaCaT stimulated with IFN-γ): 58.48 pg/mL | IL-22 cytokine concentration ([1]; HaCaT stimulated with IFN-γ): 0 pg/mL | TNF-α cytokine concentration ([1]; HaCaT stimulated with IFN-γ): 0 pg/mL | IFN-γ cytokine concentration ([1]; HaCaT stimulated with PBS): 0 pg/mL | IL-1 cytokine concentration ([1]; HaCaT stimulated with PBS): 0 pg/mL | IL-2 cytokine concentration ([1]; HaCaT stimulated with PBS): 0 pg/mL | IL-4 cytokine concentration ([1]; HaCaT stimulated with PBS): 120.89 pg/mL | IL-5 cytokine concentration ([1]; HaCaT stimulated with PBS): 0 pg/mL | IL-6 cytokine concentration ([1]; HaCaT stimulated with PBS): 39.58 pg/mL | IL-9 cytokine concentration ([1]; HaCaT stimulated with PBS): 0 pg/mL | IL-10 cytokine concentration ([1]; HaCaT stimulated with PBS): 33.26 pg/mL | IL-12 cytokine concentration ([1]; HaCaT stimulated with PBS): 0 pg/mL | IL-13 cytokine concentration ([1]; HaCaT stimulated with PBS): 0 pg/mL | IL-17 cytokine concentration ([1]; HaCaT stimulated with PBS): 0 pg/mL | IL-22 cytokine concentration ([1]; HaCaT stimulated with PBS): 0 pg/mL | TNF-α cytokine concentration ([1]; HaCaT stimulated with PBS): 0 pg/mL | IFN-γ cytokine concentration [1, 2]: 0 pg/mL | IL-1 cytokine concentration [1, 2]: 0 pg/mL | IL-2 cytokine concentration [1, 2]: 0 pg/mL | IL-4 cytokine concentration [1, 2]: 98.71 pg/mL | IL-5 cytokine concentration [1, 2]: 0 pg/mL | IL-6 cytokine concentration [1, 2]: 116.51 pg/mL | IL-9 cytokine concentration [1, 2]: 0 pg/mL | IL-10 cytokine concentration [1, 2]: 66.23 pg/mL | IL-12 cytokine concentration [1, 2]: 0 pg/mL | IL-13 cytokine concentration [1, 2]: 0 pg/mL | IL-17 cytokine concentration [1, 2]: 0 pg/mL | IL-22 cytokine concentration [1, 2]: 0 pg/mL | TNF-α cytokine concentration [1, 2]: 0 pg/mL | IL-1 cytokine concentration (primary human T-cells; [3]): 0 pg/mL | IL-2 cytokine concentration (primary human T-cells; [3]): 0 pg/mL | IL-4 cytokine concentration (primary human T-cells; [3]): 0 pg/mL | IL-5 cytokine concentration (primary human T-cells; [3]): 0 pg/mL | IL-6 cytokine concentration (primary human T-cells; [3]): 62.15 pg/mL | IL-9 cytokine concentration (primary human T-cells; [3]): 0 pg/mL | IL-10 cytokine concentration (primary human T-cells; [3]): 0 pg/mL | IL-12 cytokine concentration (primary human T-cells; [3]): 0 pg/mL | IL-13 cytokine concentration (primary human T-cells; [3]): 0 pg/mL | IL-17 cytokine concentration (primary human T-cells; [3]): 0 pg/mL | IL-22 cytokine concentration (primary human T-cells; [3]): 0 pg/mL | TNF-α cytokine concentration (primary human T-cells; [3]): 0 pg/mL | IFN-γ cytokine concentration (primary human T-cells; [4]): 0 pg/mL | IL-1 cytokine concentration (primary human T-cells; [4]): 0 pg/mL | IL-2 cytokine concentration (primary human T-cells; [4]): 39.68 pg/mL | IL-4 cytokine concentration (primary human T-cells; [4]): 0 pg/mL | IL-5 cytokine concentration (primary human T-cells; [4]): 0 pg/mL | IL-6 cytokine concentration (primary human T-cells; [4]): 94.62 pg/mL | IL-9 cytokine concentration (primary human T-cells; [4]): 28.13 pg/mL | IL-10 cytokine concentration (primary human T-cells; [4]): 79.26 pg/mL | IL-12 cytokine concentration (primary human T-cells; [4]): 0 pg/mL | IL-13 cytokine concentration (primary human T-cells; [4]): 79.09 pg/mL | IL-17 cytokine concentration (primary human T-cells; [4]): 71.42 pg/mL | IL-22 cytokine concentration (primary human T-cells; [4]): 0 pg/mL | TNF-a cytokine concentration (primary human T-cells; [4]): 53.91 pg/mL | IFN-γ cytokine concentration (primary human T-cells; [5]): 9491.25 pg/mL | IL-1 cytokine concentration (primary human T-cells; [5]): 505.05 pg/mL | IL-2 cytokine concentration (primary human T-cells; [5]): 1498.52 pg/mL | IL-4 cytokine concentration (primary human T-cells; [5]): 29.49 pg/mL | IL-5 cytokine concentration (primary human T-cells; [5]): 309.88 pg/mL | IL-6 cytokine concentration (primary human T-cells; [5]): 1198.6 pg/mL | IL-9 cytokine concentration (primary human T-cells; [5]): 339.89 pg/mL | IL-10 cytokine concentration (primary human T-cells; [5]): 814.79 pg/mL | IL-12 cytokine concentration (primary human T-cells; [5]): 0 pg/mL | IL-13 cytokine concentration (primary human T-cells; [5]): 1072.09 pg/mL | IL-17 cytokine concentration (primary human T-cells; [5]): 1097.19 pg/mL | IL-22 cytokine concentration (primary human T-cells; [5]): 0 pg/mL | TNF-a cytokine concentration (primary human T-cells; [5]): 3987.21 pg/mL | IL-1 cytokine concentration (primary murine T-cells; [6]): 100.02 pg/mL | IL-2 cytokine concentration (primary murine T-cells; [6]): 79.63 pg/mL | IL-4 cytokine concentration (primary murine T-cells; [6]): 59.48 pg/mL | IL-5 cytokine concentration (primary murine T-cells; [6]): 254.61 pg/mL | IL-6 cytokine concentration (primary murine T-cells; [6]): 111.95 pg/mL | IL-10 cytokine concentration (primary murine T-cells; [6]): 936.45 pg/mL | IL-13 cytokine concentration (primary murine T-cells; [6]): 0 pg/mL | IL-17 cytokine concentration (primary murine T-cells; [6]): 61.58 pg/mL | IL-21 cytokine concentration (primary murine T-cells; [6]): 0 pg/mL | IL-22 cytokine concentration (primary murine T-cells; [6]): 55.98 pg/mL | IL-27 cytokine concentration (primary murine T-cells; [6]): 40.8 pg/mL | TNF-α cytokine concentration (primary murine T-cells; [6]): 33.64 pg/mL | IFN-γ cytokine concentration (primary murine T-cells; [7]): 0 pg/mL | IL-1 cytokine concentration (primary murine T-cells; [7]): 62.31 pg/mL | IL-2 cytokine concentration (primary murine T-cells; [7]): 100.77 pg/mL | IL-4 cytokine concentration (primary murine T-cells; [7]): 61.12 pg/mL | IL-5 cytokine concentration (primary murine T-cells; [7]): 337.89 pg/mL | IL-6 cytokine concentration (primary murine T-cells; [7]): 90.56 pg/mL | IL-10 cytokine concentration (primary murine T-cells; [7]): 745.12 pg/mL | IL-13 cytokine concentration (primary murine T-cells; [7]): 0 pg/mL | IL-17 cytokine concentration (primary murine T-cells; [7]): 0 pg/mL | IL-21 cytokine concentration (primary murine T-cells; [7]): 0 pg/mL | IL-22 cytokine concentration (primary murine T-cells; [7]): 90.45 pg/mL | IL-27 cytokine concentration (primary murine T-cells; [7]): 80.11 pg/mL | TNF-α cytokine concentration (primary murine T-cells; [7]): 88.47 pg/mL | IFN-γ cytokine concentration (primary murine T-cells; [8]): 1808.99 pg/mL | IL-1 cytokine concentration (primary murine T-cells; [8]): 158.59 pg/mL | IL-2 cytokine concentration (primary murine T-cells; [8]): 109.88 pg/mL | IL-4 cytokine concentration (primary murine T-cells; [8]): 64.89 pg/mL | IL-5 cytokine concentration (primary murine T-cells; [8]): 200.98 pg/mL | IL-6 cytokine concentration (primary murine T-cells; [8]): 169.84 pg/mL | IL-10 cytokine concentration (primary murine T-cells; [8]): 995.6 pg/mL | IL-13 cytokine concentration (primary murine T-cells; [8]): 0 pg/mL | IL-17 cytokine concentration (primary murine T-cells; [8]): 67 pg/mL | IL-21 cytokine concentration (primary murine T-cells; [8]): 0 pg/mL | IL-22 cytokine concentration (primary murine T-cells; [8]): 111.98 pg/mL | IL-27 cytokine concentration (primary murine T-cells; [8]): 102.96 pg/mL | TNF-α cytokine concentration (primary murine T-cells; [8]): 50.14 pg/mL
